One test concerns the target T1, Human topoisomerase I (Homo sapiens, UniProt P11387).
T1 construct: purchased Topogen Inc., USA TG-1015
T1 sequence (P11387 1-765): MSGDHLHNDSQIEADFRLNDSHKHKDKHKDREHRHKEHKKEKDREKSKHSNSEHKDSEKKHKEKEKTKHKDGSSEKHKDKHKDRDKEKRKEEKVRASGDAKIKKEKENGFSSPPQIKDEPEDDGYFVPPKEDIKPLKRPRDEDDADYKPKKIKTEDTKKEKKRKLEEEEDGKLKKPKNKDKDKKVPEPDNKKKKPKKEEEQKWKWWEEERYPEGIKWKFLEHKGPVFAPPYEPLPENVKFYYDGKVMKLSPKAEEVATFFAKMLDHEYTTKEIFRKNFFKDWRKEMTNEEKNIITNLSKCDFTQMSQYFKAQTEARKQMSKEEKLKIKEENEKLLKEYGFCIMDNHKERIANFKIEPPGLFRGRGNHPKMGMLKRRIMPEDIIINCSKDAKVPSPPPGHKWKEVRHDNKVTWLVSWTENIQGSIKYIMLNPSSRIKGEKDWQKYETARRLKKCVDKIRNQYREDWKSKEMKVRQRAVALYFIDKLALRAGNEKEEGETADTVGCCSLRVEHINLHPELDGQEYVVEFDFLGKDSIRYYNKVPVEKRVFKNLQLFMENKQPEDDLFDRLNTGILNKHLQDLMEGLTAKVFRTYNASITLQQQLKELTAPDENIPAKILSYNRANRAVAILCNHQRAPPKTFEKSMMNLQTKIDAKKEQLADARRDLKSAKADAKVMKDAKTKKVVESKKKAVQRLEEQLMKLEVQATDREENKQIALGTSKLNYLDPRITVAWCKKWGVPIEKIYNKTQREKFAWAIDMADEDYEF
Description: DNA relaxation assay (gel electrophoresis). In kind it is biochemical. The settings on record: compounds at their IC50 values. On the procedure: Based on our design, we hypothesised that the new CP hybrids 4a-j could act as multi-target ligands that can block the catalytic activity of topoisomerases I (Topo-I), topoisomerases (Topo-II), and inhibit tubulin polymerisation as possible targets for the anti-proliferative activity. First, the Topo-I activity was tested by the DNA relaxation assay. The supercoiled plasmid has been utilised as a substrate in the relaxation assay to study the inhibition of DNA Topo-I activity. […] Two different assays were used to examine the inhibitory activity of IC50 of the CP hybrids against Human topoisomerase I. Firstly; Gel electrophoresis-based assay (DNA relaxation assay) was performed following the manufacturer's protocol (TG-1015, Topogen Inc., USA). Secondly, the inhibitory activity of compounds 4a, 4b, 4e, 4i, 4j, and camptothecin to human topoisomerase I was analysed by Human DNA Topoisomerase I Assay Kit (ProFoldin, Hudson, MA, USA) with recombinant human DNA topoisomerase I (Sigma-Aldrich) according to the manufacturer’s protocol.

In the next test the test system is HL-60(TB). Type of test: cell-based. The settings on record: Homo sapiens.
A further test deals with K-562. In kind it is cell-based, human.
The subject of the next test is MOLT-4. Type of test: cell-based. The settings on record: Homo sapiens.
A further test deals with RPMI-8226. Type of test: cell-based.
In the next test the test system is SR. Type of test: cell-based, human.
In another test the test system is NCI-H23. Type of test: cell-based. The settings on record: Homo sapiens.
The next test relates to HCC-2998. Type of test: cell-based. The settings on record: Homo sapiens.
For another test, the system named is HT29. In kind it is cell-based. The settings on record: Homo sapiens.
The next test has as its system SW-620. Type of test: cell-based. The settings on record: Homo sapiens.
The subject of a further test is SF-268. In kind it is cell-based. The settings on record: Homo sapiens.
The next test relates to SF-539. Type of test: cell-based. The settings on record: Homo sapiens.
Another test has as its system SNB-19. In kind it is cell-based. The settings on record: Homo sapiens.
The subject of another test is LOX IMVI. Type of test: cell-based. The settings on record: Homo sapiens.
For a further test, the system named is MDA-MB-435. In kind it is cell-based. The settings on record: Homo sapiens.
In the next test the test system is SK-MEL-5. In kind it is cell-based. The settings on record: Homo sapiens.
A further test has as its system UACC-257. Type of test: cell-based. The settings on record: Homo sapiens.
For a further test, the system named is UACC-62. Type of test: cell-based. The settings on record: Homo sapiens.
The next test concerns OVCAR-4. Type of test: cell-based. The settings on record: Homo sapiens.
The next test relates to SK-OV-3. In kind it is cell-based. The settings on record: Homo sapiens.
A further test concerns 786-0. Type of test: cell-based. The settings on record: Homo sapiens.
In a further test the test system is SN12C. In kind it is cell-based. The settings on record: Homo sapiens.
The next test deals with UO-31. In kind it is cell-based. The settings on record: Homo sapiens.
The subject of a further test is PC-3. Type of test: cell-based. The settings on record: Homo sapiens.
Another test deals with DU-145. In kind it is cell-based. The settings on record: Homo sapiens.
The test system of the next test is MDA-MB-468. In kind it is cell-based. The settings on record: Homo sapiens.
Test [1] concerns 59 human cancer cell-lines. In kind it is cell-based.
Setting [2] is: read-out: LC50 (the source's name).
Setting [3] is: panel mean graph midpoint, Units Molar.

Read-outs that look alike come from different tables or passages of the source. A value given as a limit tells only on which side of the number the result lay.

In the case of `O=C(/C=C/c1ccccc1)c1ccc(-n2cc(CN3CCN(c4cc5c(cc4F)c(=O)c(C(=O)O)cn5C4CC4)CC3)nn2)cc1` [Compound 4a, (E) 7-(4-((1–(4-Cinnamoylphenyl)-1H-1,2,3-triazol-4-yl)methyl)piperazin-1-yl)-1-cyclopropyl-6-fluoro-4-oxo-1,4-dihydroquinoline-3-carboxylic acid], the “Topo-I catalytic activity, DNA relaxation” value (shortened to “Topo-I catalytic activity”) on Human topoisomerase I is “could inhibit Topo-I catalytic activity”.

For the compound `O=C(/C=C/c1cccc(Cl)c1)c1ccc(-n2cc(CN3CCN(c4cc5c(cc4F)c(=O)c(C(=O)O)cn5C4CC4)CC3)nn2)cc1` [Compound 4b, (E)-7-(4-((1–(4-(3-(3-chlorophenyl)acryloyl)phenyl)-1H-1,2,3-triazol-4-yl)methyl)piperazin-1-yl)-1-cyclopropyl-6-fluoro-4-oxo-1,4-dihydroquinoline-3-carboxylic acid], the “Topo-I catalytic activity” value on Human topoisomerase I is “could inhibit Topo-I catalytic activity”.

As for `COc1ccc(/C=C/C(=O)c2ccc(-n3cc(CN4CCN(c5cc6c(cc5F)c(=O)c(C(=O)O)cn6C5CC5)CC4)nn3)cc2)cc1OC` [Compound 4i, (E)-1-cyclopropyl-7-(4-((1-(4-(3–(3,4-dimethoxyphenyl)acryloyl)phenyl)-1H-1,2,3-triazol-4-yl)methyl)piperazin-1-yl)-6-fluoro-4-oxo-1,4-dihydroquinoline-3-carboxylic acid], the “Topo-I catalytic activity” value at Human topoisomerase I is on record as “could inhibit Topo-I catalytic activity”.

For `O=C(/C=C/c1ccc(F)cc1)c1ccc(-n2cc(CN3CCN(c4cc5c(cc4F)c(=O)c(C(=O)O)cn5C4CC4)CC3)nn2)cc1` [Compound 4e, (E)-1-cyclopropyl-6-fluoro-7–(4-((1–(4-(3-(4-fluorophenyl)acryloyl)phenyl)-1H-1,2,3-triazol-4-yl)methyl)piperazin-1-yl)-4-oxo-1,4-dihydroquinoline-3-carboxylic acid], the “Topo-I catalytic activity” value at Human topoisomerase I was “could inhibit Topo-I catalytic activity”.

For the compound `COc1cc(/C=C/C(=O)c2ccc(-n3cc(CN4CCN(c5cc6c(cc5F)c(=O)c(C(=O)O)cn6C5CC5)CC4)nn3)cc2)cc(OC)c1OC` [Compound 4j, (E)-1-cyclopropyl-6-fluoro-4-oxo-7–(4-((1–(4-(3-(3,4,5-trimethoxyphenyl)acryloyl)phenyl)-1H-1,2,3-triazol-4-yl)methyl)piperazin-1-yl)-1,4-dihydroquinoline-3-carboxylic acid], the GI50 in the test with HL-60(TB) came to 3.18 µM; with K-562, 0.97 µM; in the test with K-562 (Homo sapiens, K562), 0.977 µM; in the test with MOLT-4, 3.32 µM; in the test with RPMI-8226 (Homo sapiens, RPMI-8226, RPMI-8226), 0.401 µM; in the test on RPMI-8226 (RPMI-8226), 0.4 µM. Moreover, the concentration for 50% growth inhibition (GI50) with SR was 0.43 µM; in the test with SR (Homo sapiens) it was 0.434 µM; in the test on NCI-H23 it was 2.97 µM; with HCC-2998, 1.73 µM; with HT29 (HT-29), 1.24 µM; with SW-620, 1.37 µM. In addition, the GI50 is 3.09 µM in the test with SF-268; 1.91 µM with SF-539; 4.52 µM in the test on SNB-19; 1.57 µM in the test with LOX IMVI; 1.49 µM in the test with MDA-MB-435; 2.64 µM with SK-MEL-5. For the same compound, the GI50 was determined as 6.34 µM with UACC-257; 2.83 µM in the test on UACC-62; 3.94 µM with OVCAR-4; 7.09 µM in the test on SK-OV-3; 1.67 µM with 786-0; 2.66 µM with SN12C. Further, the 50% growth inhibitory concentration (GI50) is 1.73 µM in the test on UO-31; 2.54 µM in the test on PC-3; 3.67 µM in the test with DU-145; 1.96 µM in the test with MDA-MB-468; 0.21 to 21.1 µM in [1] (Homo sapiens, range over all cancer cell lines). For the same compound, the CC50 in the test on HL-60(TB) (setting [2]) is more than 100 µM; in the test on K-562 (Homo sapiens, K562, read-out: LC50 (the source's name)) it was more than 100 µM; with MOLT-4 (setting [2]), more than 100 µM; in the test with RPMI-8226 (Homo sapiens, RPMI-8226, read-out: LC50 (the source's name)), more than 100 µM; in the test on SR (Homo sapiens, read-out: LC50 (the source's name)), more than 100 µM; with NCI-H23 (setting [2]) it was more than 100 µM. For the same compound, the CC50 in the test with HT29 (HT-29, read-out: LC50 (the source's name)) was more than 100 µM; in the test on SW-620 (setting [2]), more than 100 µM; in the test with SF-268 (setting [2]), more than 100 µM; in the test with SF-539 (setting [2]) it was 10.3 µM; with SNB-19 (setting [2]) it was more than 100 µM; in the test on LOX IMVI (setting [2]) it was more than 100 µM. Besides, the CC50 in the test on MDA-MB-435 (setting [2]) was more than 100 µM; in the test with SK-MEL-5 (setting [2]), more than 100 µM; in the test with UACC-62 (setting [2]), 57.7 µM; in the test on OVCAR-4 (setting [2]), 39.6 µM; in the test with SK-OV-3 (setting [2]), more than 100 µM; with SN12C (setting [2]), 46.2 µM. In addition, the CC50 in the test with UO-31 (setting [2]) is 30.5 µM; with PC-3 (setting [2]), more than 100 µM; in the test on MDA-MB-468 (setting [2]) it was more than 100 µM. The LC50 in the test on UACC-257 is more than 100 µM. In the test on DU-145, this compound came in with an LC50 (lethal concentration 50%) of more than 100 µM. The “Log10GI50 _MID” value in test [1] (setting [3]) was -5.58. The “Log10LC50 _MID” value in test [1] (setting [3]) is on record as -4.06. Further, the “Log10TGI _MID” value in [1] (setting [3]) is on record as -4.58. Moreover, the “Topo-I catalytic activity” value on Human topoisomerase I is “could inhibit Topo-I catalytic activity”.

The values are drawn from PMC9116245, “New 1,2,3-triazole linked ciprofloxacin-chalcones induce DNA damage by inhibiting human topoisomerase I& II and tubulin polymerization” (Journal of Enzyme Inhibition and Medicinal Chemistry, 2022).
